Experimental data taken from ChEMBL document CHEMBL1125524, “Adenosine A1 antagonists. 2. Structure-activity relationships on diuretic activities and protective effects against acute renal failure” (J Med Chem, 1992).

Key:
Rattus norvegicus [1] = test: Serum creatinine concentration measured after intraperitoneal administration of 10 mg/kg of compound to rats (vehicle0.63+/-0.29); type: functional
Rattus norvegicus [2] = test: Oral diuretic activity was measured after oral administration of 25 mg/kg to rats(control volume is 0.80+/-0.13); type: functional, Urine
Rattus norvegicus [3] = test: Percent inhibition of serum creatinine by the compound given as ratio of Cr value in treated to vehicle treated ones after intraperitoneal administration of 10 mg/kg of compound to rats (vehicle0.63+/-0.29); type: functional; conditions: ip
Rattus norvegicus [4] = test: Ratio of urinary excretion value (urinary volume) in treated rats to that in control rats, at a peroral dose of 25 mg/Kg; type: functional, Urine
Rattus norvegicus [5] = test: Ratio of sodium ion/potassium ion concentration in treated rats to that in control rats, at a peroral dose of 25 mg/Kg; type: functional
Rattus norvegicus [6] = test: Ratio of urinary excretion value (Na+ concentration) in treated rats to that in control rats, at a peroral dose of 25 mg/Kg; type: functional, Urine
Rattus norvegicus [7] = test: Effect on urinary excretion potassium and sodium after oral administration of 25 mg/kg to rats(potassium and sodium excretion in control rat is 0.160+/-0.017); type: functional, Urine
Rattus norvegicus [8] = test: Urea nitrogen concentration measured after intraperitoneal administration of 10 mg/kg of compound to rats(vehicle 137.9+/-8.5); type: functional
Rattus norvegicus [9] = test: Percent inhibition of Urea nitrogen by the compound given as ratio of UN value in treated to vehicle treated ones fter intraperitoneal administration of 10 mg/kg of compound to rats(vehicle 137.9+/-8.5); type: functional; conditions: ip
Adenosine receptor A1 = biological target: T1, Adenosine receptor A1 (Cavia porcellus, UniProt P47745)
T1 sequence (P47745 whole entry): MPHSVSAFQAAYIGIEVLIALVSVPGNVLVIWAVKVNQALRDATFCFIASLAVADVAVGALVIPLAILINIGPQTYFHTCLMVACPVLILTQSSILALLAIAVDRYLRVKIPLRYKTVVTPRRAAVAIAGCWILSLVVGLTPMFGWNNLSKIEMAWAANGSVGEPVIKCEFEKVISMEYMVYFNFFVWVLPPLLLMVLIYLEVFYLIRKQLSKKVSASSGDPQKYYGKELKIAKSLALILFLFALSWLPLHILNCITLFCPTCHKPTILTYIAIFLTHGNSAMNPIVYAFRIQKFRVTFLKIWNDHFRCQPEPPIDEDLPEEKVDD
Description: Binding affinity against adenosine A1 receptor in guinea pig forebrain membranes using N6-[3H]cyclohexyladenosine as radioligand

Adenosine A2 receptor = Adenosine A2 receptor (Rattus norvegicus, UniProt P29276+P30543)
Rattus norvegicus [10] = test: Serum creatinine concentration measured after intraperitoneal administration of 1 mg/kg of compound to rats(vehicle 2.75+/-0.43); type: functional
Rattus norvegicus [11] = test: Effect on urinary excretion potassium and sodium after oral administration of 0.0025 mg/kg to rats(potassium and sodium excretion in control rat is 0.146+/-0.006); type: functional, Urine
Rattus norvegicus [12] = test: Effect on urinary excretion potassium and sodium after oral administration of 0.005 mg/kg to rats(potassium and sodium excretion in control rat is 0.160+/-0.006); type: functional, Urine
Rattus norvegicus [13] = test: Ratio of urinary excretion value (Na+ concentration) in treated rats to that in control rats, at a peroral dose of 0.0025 mg/Kg; type: functional, Urine
Rattus norvegicus [14] = test: Ratio of urinary excretion value (Na+ concentration) in treated rats to that in control rats, at a peroral dose of 0.005 mg/Kg; type: functional, Urine
Rattus norvegicus [15] = test: Effect on urinary excretion potassium and sodium after oral administration of 0.4 mg/kg to rats(potassium and sodium excretion in control rat is 0.261+/-0.008); type: functional, Urine
Rattus norvegicus [16] = test: Effect on urinary excretion potassium and sodium after oral administration of 1.6 mg/kg to rats(potassium and sodium excretion in control rat is 0.173+/-0.016); type: functional, Urine
Rattus norvegicus [17] = test: Percent inhibition of serum creatinine by the compound given as ratio of Cr value in treated to vehicle treated ones after intraperitoneal administration of 1 mg/kg of compound to rats(vehicle 2.75+/-0.43); type: functional; conditions: ip
Rattus norvegicus [18] = test: Ratio of urinary excretion value (urinary volume) in treated rats to that in control rats, at a peroral dose of 0.1 mg/Kg; type: functional, Urine
Rattus norvegicus [19] = test: Ratio of urinary excretion value (urinary volume) in treated rats to that in control rats, at a peroral dose of 0.4 mg/Kg; type: functional, Urine
Rattus norvegicus [20] = test: Ratio of urinary excretion value (urinary volume) in treated rats to that in control rats, at a peroral dose of 1.6 mg/Kg; type: functional, Urine
Rattus norvegicus [21] = test: Urea nitrogen concentration measured after intraperitoneal administration of 1 mg/kg of compound to rats(vehicle 123.2+/-14.2); type: functional
Rattus norvegicus [22] = test: Effect on urinary excretion potassium and sodium after oral administration of 0.025 mg/kg to rats(potassium and sodium excretion in control rat is 0.183+/-0.012); type: functional, Urine
Rattus norvegicus [23] = test: Effect on urinary excretion potassium and sodium after oral administration of 0.1 mg/kg to rats(potassium and sodium excretion in control rat is 0.143+/-0.013); type: functional, Urine
Rattus norvegicus [24] = test: Ratio of sodium ion/potassium ion concentration in treated rats to that in control rats, at a peroral dose of 0.0025 mg/Kg; type: functional
Rattus norvegicus [25] = test: Ratio of sodium ion/potassium ion concentration in treated rats to that in control rats, at a peroral dose of 0.005 mg/Kg; type: functional
Rattus norvegicus [26] = test: Ratio of sodium ion/potassium ion concentration in treated rats to that in control rats, at a peroral dose of 0.025 mg/Kg; type: functional
Rattus norvegicus [27] = test: Ratio of sodium ion/potassium ion concentration in treated rats to that in control rats, at a peroral dose of 0.1 mg/Kg; type: functional
Rattus norvegicus [28] = test: Ratio of sodium ion/potassium ion concentration in treated rats to that in control rats, at a peroral dose of 0.4 mg/Kg; type: functional
Rattus norvegicus [29] = test: Ratio of sodium ion/potassium ion concentration in treated rats to that in control rats, at a peroral dose of 1.6 mg/Kg; type: functional
Rattus norvegicus [30] = test: Ratio of urinary excretion value (Na+ concentration) in treated rats to that in control rats, at a peroral dose of 0.1 mg/Kg; type: functional, Urine
Rattus norvegicus [31] = test: Ratio of urinary excretion value (Na+ concentration) in treated rats to that in control rats, at a peroral dose of 0.4 mg/Kg; type: functional, Urine
Rattus norvegicus [32] = test: Ratio of urinary excretion value (Na+ concentration) in treated rats to that in control rats, at a peroral dose of 1.6 mg/Kg; type: functional, Urine
Rattus norvegicus [33] = test: Ratio of urinary excretion value (Na+ concentration) in treated rats to that in control rats, at a peroral dose of 6.25 mg/Kg; type: functional, Urine
Rattus norvegicus [34] = test: Ratio of urinary excretion value (urinary volume) in treated rats to that in control rats, at a peroral dose of 0.0025 mg/Kg; type: functional, Urine
Rattus norvegicus [35] = test: Ratio of urinary excretion value (urinary volume) in treated rats to that in control rats, at a peroral dose of 0.005 mg/Kg; type: functional, Urine
Rattus norvegicus [36] = test: Ratio of urinary excretion value (urinary volume) in treated rats to that in control rats, at a peroral dose of 0.025 mg/Kg; type: functional, Urine
Rattus norvegicus [37] = test: Effect on urinary excretion potassium and sodium after oral administration of 25 mg/kg to rats(potassium and sodium excretion in control rat is 0.138+/-0.008); type: functional, Urine
Rattus norvegicus [38] = test: Oral diuretic activity was measured after oral administration of 0.0025 mg/kg to rats(control volume is 0.95+/-0.12); type: functional, Urine
Rattus norvegicus [39] = test: Oral diuretic activity was measured after oral administration of 0.005 mg/kg to rats(control volume is 0.76+/-0.01); type: functional, Urine
Rattus norvegicus [40] = test: Oral diuretic activity was measured after oral administration of 0.025 mg/kg to rats(control volume is 0.82+/-0.05); type: functional, Urine
Rattus norvegicus [41] = test: Oral diuretic activity was measured after oral administration of 0.1 mg/kg to rats(control volume is 0.92+/-0.05); type: functional, Urine
Rattus norvegicus [42] = species on record: Rattus norvegicus; type: functional, Urine; conditions: po, 1.6 mg/kg
Rattus norvegicus [43] = test: Percent inhibition of Urea nitrogen by the compound given as ratio of UN value in treated to vehicle treated ones after intraperitoneal administration of 1 mg/kg of compound to rats(vehicle 123.2+/-14.2); type: functional; conditions: ip
Rattus norvegicus [44] = test: Ratio of urinary excretion value (Na+ concentration) in treated rats to that in control rats, at a peroral dose of 0.025 mg/Kg; type: functional, Urine
Rattus norvegicus [45] = test: Ratio of urinary excretion value (urinary volume) in treated rats to that in control rats, at a peroral dose of 6.25 mg/Kg; type: functional, Urine
Rattus norvegicus [46] = test: Oral diuretic activity was measured after oral administration of 0.4 mg/kg to rats(control volume is 1.4+/-0.05); type: functional, Urine
Rattus norvegicus [47] = test: Oral diuretic activity was measured after oral administration of 25 mg/kg to rats(control volume is 0.66+/-0.04); type: functional, Urine

SMILES: CCCn1c(=O)c2nc(CC34CC5CC(CC(C5)C3)C4)[nH]c2n(CCC)c1=O
- Cr (Rattus norvegicus [1]): 3.21 mg/dL
- Urine volume (Rattus norvegicus [2]): 0.51 ml 6hr-1 100g-1
- inhibition in vivo at 10 mg/kg (Rattus norvegicus [3]): 12%
- T/C (Rattus norvegicus [4]): 0.64
- Na+/K+ (Rattus norvegicus [5]): 0.84
- T/C (Rattus norvegicus [6]): 0.67
- Na (Rattus norvegicus [7]): 0.108 m equiv 6hr-1 100g-1
- UN (Rattus norvegicus [8]): 117.8 mg/dL
- inhibition in vivo at 10 mg/kg (Rattus norvegicus [9]): 15%
- Ki (Adenosine receptor A1): 880 nM
- Ki (Adenosine A2 receptor): > 100000 nM

SMILES: CCCn1c(=O)c2nc(C34CC5CC(CC3C5)C4)[nH]c2n(CCC)c1=O [ROLOFYLLINE]
- Cr (Rattus norvegicus [10]): 2 mg/dL
- Na (Rattus norvegicus [11]): 0.258 m equiv 6hr-1 100g-1
- Na (Rattus norvegicus [12]): 0.256 m equiv 6hr-1 100g-1
- T/C (Rattus norvegicus [13]): 1.76
- T/C (Rattus norvegicus [14]): 1.6
- Na (Rattus norvegicus [15]): 0.447 m equiv 6hr-1 100g-1
- Na (Rattus norvegicus [16]): 0.399 m equiv 6hr-1 100g-1
- inhibition in vivo at 1 mg/kg (Rattus norvegicus [17]): 47%
- T/C (Rattus norvegicus [18]): 2.65
- T/C (Rattus norvegicus [19]): 1.86
- T/C (Rattus norvegicus [20]): 2.61
- T/C (Rattus norvegicus [4]): 4.15
- UN (Rattus norvegicus [21]): 66.4 mg/dL
- Na (Rattus norvegicus [22]): 0.331 m equiv 6hr-1 100g-1
- Na (Rattus norvegicus [23]): 0.334 m equiv 6hr-1 100g-1
- Na+/K+ (Rattus norvegicus [24]): 1.59
- Na+/K+ (Rattus norvegicus [25]): 1.11
- Na+/K+ (Rattus norvegicus [26]): 1.45
- Na+/K+ (Rattus norvegicus [27]): 1.9
- Na+/K+ (Rattus norvegicus [28]): 1.42
- Na+/K+ (Rattus norvegicus [29]): 1.93
- Na+/K+ (Rattus norvegicus [5]): 2.05
- T/C (Rattus norvegicus [30]): 2.34
- T/C (Rattus norvegicus [31]): 1.7
- T/C (Rattus norvegicus [32]): 2.3
- T/C (Rattus norvegicus [6]): 3.44
- T/C (Rattus norvegicus [33]): 2.64
- T/C (Rattus norvegicus [34]): 1.69
- T/C (Rattus norvegicus [35]): 1.83
- T/C (Rattus norvegicus [36]): 2.13
- Na (Rattus norvegicus [37]): 0.457 m equiv 6hr-1 100g-1
- Urine volume (Rattus norvegicus [38]): 1.61 ml 6hr-1 100g-1
- Urine volume (Rattus norvegicus [39]): 1.39 ml 6hr-1 100g-1
- Urine volume (Rattus norvegicus [40]): 1.75 ml 6hr-1 100g-1
- Urine volume (Rattus norvegicus [41]): 2.44 ml 6hr-1 100g-1
- Urine volume (Rattus norvegicus [42]): 2.77 ml 6hr-1 100g-1
- inhibition in vivo at 1 mg/kg (Rattus norvegicus [43]): 46%
- T/C (Rattus norvegicus [44]): 1.81
- T/C (Rattus norvegicus [45]): 2.9
- Urine volume (Rattus norvegicus [46]): 2.64 ml 6hr-1 100g-1
- Urine volume (Rattus norvegicus [47]): 2.74 ml 6hr-1 100g-1
- Ki (Adenosine A2 receptor): 380 nM
